# Measurements published in patent EP0351625B1, “Anti-HIV activity of BV-3608” (Bristol-Myers Squibb Company, priority 1988, dated 1990).
# What was measured:
# [1] = Acute toxicity in mice after single intravenous and intramuscular administrations; conditions: mouse, in vivo
# Protocol: The acute toxicity of Compound No. 28567 was determined in mice after single intravenous and intramuscular administrations.
# [2] = Cytotoxicity on uninfected MT-4 cells (viable cell count, trypan blue dye exclusion); type: cell-based; conditions: human
# Protocol: (§1) MT-4 cells are maintained at 37°C in the complete medium. Two days before the start of an experiment, viable cells are counted by the trypan blue dye exclusion method and the concentration is adjusted to 30 x 10⁴ cells/mL.
# The test substance is dissolved in dimethylsulfoxide (DMSO) and the solutions are then diluted with complete medium to concentrations of 10, 5.0, 2.5, and 1.25 mcg/ml to provide test solutions. Matched portions of HTLV-IIIB infected and uninfected MOLT-4 cells are adjusted to 60 x 10⁴ cells/mL and mixed with the same volume of diluted test solution to make the final concentration of 30 x 10⁴ cells/mL, and 5.0, 2.5, […], and 0.63 mcg/mL of test substance. To measure anti-HIV activity, the number of viable cells surviving in the test medium are counted by the trypan blue dye-exclusion method on day 3 and day 6 after infection of the cells.
# Figure 1 illustrates the inhibition of cytopathic effect of the HIV virus on MT-4 cells by Compound No. 28567. First, the unshaded bars show the lack of cytotoxicity of the compound on uninfected MT-4 cells. Only at concentrations of 28567 in excess of 30 µg/ml is a noticeable or consistent reduction in the number of cells observed after 3 or 6 days, and even at 120 mg/ml, 60-70% of the cells survive.
# [3] = system: HTLV-IIIB infected MT-4 cells; experiment: Inhibition of cytopathic effect of HIV on infected MT-4 cells (viable cell count); type: cell-based; conditions: Human immunodeficiency virus 1, IIIB, MT4; HIV-infected MT-4 cells, 3 or 6 days (Figure 1); read-out: concentration affording virtually complete protection of MT-4 cells
# Protocol: The cell line MT-4 disclosed by Harada, S. et al., in Virology, Vol. 146, pp. 272-281 (1985) is appropriate. This cell line features rapid and efficient replication of HTLV-III, followed by cytolysis.
# as §1
# Infection of the MT-4 cells with the virus is made at a multiplicity of infection (MOI) of 0.002. MT-4 cells (60 x 10⁴ cells/mL) are mixed with a 1:100 dilution of the viral preparation and incubated for 1 hour at 37°C for adsorption of the virus. After adsorption, HTLV-IIIB infected MT-4 cells are washed once and resuspended with complete medium. […]
# The test substance is dissolved in dimethylsulfoxide (DMSO) and the solutions are then diluted with complete medium to concentrations of 10, 5.0, 2.5, and 1.25 mcg/ml to provide test solutions. […] To measure anti-HIV activity, the number of viable cells surviving in the test medium are counted by the trypan blue dye-exclusion method on day 3 and day 6 after infection of the cells. […]
# [4] = system: MOLT-4 and MOLT-4/HTLV-IIIB; experiment: Cell fusion / giant cell formation in MOLT-4 and MOLT-4/HTLV-IIIB co-culture (cell size distribution); type: cell-based; conditions: 25 µg/ml in medium, mixed culture; 11.8% without compound
# Protocol: The effect on cell fusion which results in cell to cell infection and giant cell formation may be examined as follows. MOLT-4 and its virus-producing cell, MOLT-4/HTLV-IIIB are mixed in 1:1 in proportion of cell number and adjusted to a final concentration of 5 x 10⁵ cells/ml with the medium containing various concentrations of compounds, and then incubated for 10 hours in a CO₂ incubator. After incubation, the distribution of cell size is measured by a cell multisizer (Coulter Electronics Ltd., Luton, England). Viable cells are counted by trypan blue dye exclusion method. Giant cell formation is observed under a phase- contrast microscope. Particles with diameters of from 3 to 100 µm in diameter are observed in the co-cultures. Only those particles having a diameter of more than 9 µm are considered to be cells. Cell sizes in each of the cultures of MOLT-4 or MOLT-4/HTLV-IIIB are similar, and the proportion of cell particles with 12-14 µm diameters are virtually the same in each culture. The percentage of cell particles having more than a 20 µm diameter was 2.7% and in the MOLT-4 cell culture, and 2.4% in the MOLT-4/HTLV-IIIB cell culture. […] This is a reflection of the infectivity by cell-to-cell fusion of the MOLT-4/HTLV-IIIB cells for the uninfected MOLT-4 cells. The test method measures the ability of test substances to prevent or reduce this effect. […]
compound,measurement,setting,value
CN[C@@H]1[C@H](O[C@@H]2OC[C@@H](O)[C@H](O)[C@H]2O)[C@@H](O)[C@H](O[C@H]2c3cc(C)c(C(=O)N[C@H](C)C(=O)O)c(O)c3-c3c(cc4c(c3O)C(=O)c3cc(OC)cc(O)c3C4=O)[C@@H]2O)O[C@@H]1C [Compound No. 28567],sign of toxicity,[1]; 400 mg/kg,no sign of toxicity
same,LD50,"[1]; iv, read-out: LD₅₀",140 mg/kg
same,MCC,"[2]; after 3 or 6 days (Figure 1), read-out: concentration at which a noticeable or consistent reduction in the number of cells is observed",> 30 µg/mL
same,viability,"[2]; at 120 mg/ml (so in the source), 3 or 6 days, read-out: cells survive",60 to 70%
same,minimal effective concentration,[3],≥ 3.5 µg/mL
same,proportion of particles exceeding 20 µm,[4],2.7%
